Data: patent US11407771B2 (priority 2018, dated 2022)

The compounds below were run against T1, MAPK13 (Homo sapiens (Human), UniProt O15264) (assay: not given). Conditions: read-out: MAPK13 inhibition.
T1 sequence (O15264 whole entry): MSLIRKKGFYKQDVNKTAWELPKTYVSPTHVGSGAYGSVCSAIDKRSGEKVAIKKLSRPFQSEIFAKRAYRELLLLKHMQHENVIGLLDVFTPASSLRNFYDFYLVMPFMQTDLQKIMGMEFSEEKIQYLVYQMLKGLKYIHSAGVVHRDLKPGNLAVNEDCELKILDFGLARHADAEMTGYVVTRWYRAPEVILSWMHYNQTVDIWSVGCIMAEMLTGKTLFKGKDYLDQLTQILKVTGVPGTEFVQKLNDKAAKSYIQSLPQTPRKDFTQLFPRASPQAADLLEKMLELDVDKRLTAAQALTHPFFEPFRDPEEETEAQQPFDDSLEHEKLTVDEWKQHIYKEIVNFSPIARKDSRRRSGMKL

Structure (SMILES)	IC50
CCOC(=O)Nc1cc(CCc2cnc(NC(=O)Nc3cc(C(C)(C)C)n[nH]3)s2)ccn1 [Compound 354, [4-(2-{2-[3-(5-tert-Butyl-2H-pyrazol-3-yl)-ureido]-thiazol-5-yl}-ethyl)-pyridin-2-yl]-carbamic acid ethyl ester]	< 250 nM
CC(=O)Nc1cc(Oc2ccc(NC(=O)Nc3cc(C4CC4)ccc3F)c(F)c2)ccn1 [Compound 397, N-(4-{4-[3-(5-Cyclopropyl-2-fluoro-pheny)-ureido]-3-fluoro-phenoxy}-pyridin-2-yl)-actamde]	< 250 nM
CC(=O)Nc1cc(CCc2cnc(NC(=O)Nc3cc(C4CC4)ccc3F)s2)ccn1 [Compound 398, N-[4-(2-{2-[3-(5-Cyclopropyl-2-fluoro-phenyl)-ureido]-thiazol-5-yl}-ethyl)-pyridin-2-yl]-acetamide]	< 250 nM

Each compound was assayed on MUC5AC mucin formation in IL-13-stimulated hTEC (assay: not given). Conditions: not given.

Structure (SMILES)	MUC5AC production
CCOC(=O)Nc1cc(CCc2cnc(NC(=O)Nc3cc(C(C)(C)C)n[nH]3)s2)ccn1 [Compound 354, [4-(2-{2-[3-(5-tert-Butyl-2H-pyrazol-3-yl)-ureido]-thiazol-5-yl}-ethyl)-pyridin-2-yl]-carbamic acid ethyl ester]	marked attenuation
CC(=O)Nc1cc(Oc2ccc(NC(=O)Nc3cc(C4CC4)ccc3F)c(F)c2)ccn1 [Compound 397, N-(4-{4-[3-(5-Cyclopropyl-2-fluoro-pheny)-ureido]-3-fluoro-phenoxy}-pyridin-2-yl)-actamde]	marked attenuation
CC(=O)Nc1cc(CCc2cnc(NC(=O)Nc3cc(C4CC4)ccc3F)s2)ccn1 [Compound 398, N-[4-(2-{2-[3-(5-Cyclopropyl-2-fluoro-phenyl)-ureido]-thiazol-5-yl}-ethyl)-pyridin-2-yl]-acetamide]	marked attenuation
O=c1ncn2nc(Sc3ccc(F)cc3F)ccc2c1-c1c(Cl)cccc1Cl [Compound 401, VX-745, reference compound]	no significant inhibition

What follows are compounds tested against T1, MAPK13 (assay: biochemical). Conditions: not given.

Structure (SMILES)	IC50
CC(C)(C)c1cc(NC(=O)Nc2ncc(CCc3ccnc(N)c3)s2)[nH]n1 [Compound 367, 1-{5-[2-(2-Ainino-pyridin-4-yl)-ethyl]-thiazol-2-yl}-3-(5-tert-butyl-2H-pyrazol-3-yl)-urea]	250 to 1000 nM
CC(C)(C)c1cc(NC(=O)Nc2ncc(CCc3ccncc3)s2)on1 [Compound 386, 1-(3-tert-Butyl-isoxazol-5-yl)-3-[5-(2-pyridin-4-yl-ethyl)-thiazol-2-yl]-urea]	250 to 1000 nM
CC(C)(C)c1cc(NC(=O)Nc2ncc(CCc3ccncc3)s2)no1 [Compound 387, 1-(5-tert-Butyl-isoxazol-3-yl)-3-[5-(2-pyridin-4-yl-ethyl)-thiazol-2-yl]-urea]	250 to 1000 nM
CC(=O)Nc1cc(Oc2ccc(NC(=O)Nc3cc(C(C)(C)C)nn3CC3CC3)c(F)c2)ccn1 [Compound 393, N-(4-{4-[3-(5-tert-Butyl-2-cyclopropylmethyl-2H-pyrazol-3-yl)-ureido]-3-fluoro-phenoxy}-pyridin-2-yl)-acetamide]	< 250 nM
CC(=O)Nc1cc(COc2ccc(NC(=O)Nc3cc([Si](C)(C)C)ccc3F)c(F)c2)ccn1 [Compound 405, N-(4-{3-fluoro-4-[3-(2-fluoro-trimethylsilanyl-phenyl)-ureido]-phenoxymethyl}-pyridin-2-yl)-acetamide]	250 to 1000 nM

Second part, the compound after the results:

IC50	Structure (SMILES)
250 to 1000 nM	COC(=O)Nc1cc(CCc2ccc(NC(=O)Nc3cc(C(C)(C)C)nn3CC3CC3)c(F)c2)ccn1 [Compound 316, [4-(2-{4-[3-(5-tet-Butyl-2-cyclopropylmethyl-2H-pyrazol-3-yl)-ureido]-3-fluoro-phenyl}-ethyl)-pyridin-2-yl]-carbamic acid methyl ester]
250 to 1000 nM	CC(C)(C)c1cc(NC(=O)Nc2ncc(CCc3ccnc(N)c3)s2)no1 [Compound 365, 1-{5-[2-(2-Amine-pyridin-4-yl)-ethyl]-thiazol-2-yl}-3-(5-tert-butyl-isoxazol-3-yl)-urea]
250 to 1000 nM	Cn1nc(C(C)(C)C)cc1NC(=O)Nc1ccc(CCc2ccnc(NC(=O)C3CC3)c2)cc1F [Compound 373, Cyclopropanecarboxylic acid [4-(2-{4-[3-(5-tert-butyl-2-methyl-2H-pyrazol-3-yl)-ureido]-3-fluoro-phenyl}-ethyl)-pyridin-2-yl]-amide]
250 to 1000 nM	CC(=O)Nc1cc(CCc2ccc(NC(=O)Nc3cc(C(C)(C)C)nn3-c3ccc(F)cc3)c(F)c2)ccn1 [Compound 379, N-{4-[2-(4-{3-[5-tert-Butyl-2-(4-fluoro-phenyl)-2H-pyrazol-3-yl]-ureido}-3-fluoro-phenyl)-ethyl]-pyridin-2-yl}-acetamide]
250 to 1000 nM	CC(=O)Nc1cc(COc2ccc(NC(=O)Nc3cc(C(C)(C)C)nn3CC3CC3)c(F)c2)ccn1 [Compound 413, N-(4-{4-[3-(5-tert-Butyl-2-cyclopropylmethyl-2H-pyrazol-3-yl)-ureido]-3-fluoro-phenoxymethyl}-pyridin-2-yl)-acetamide]
250 to 1000 nM	CC(=O)Nc1cc(COc2ccc(NC(=O)Nc3cc(C(C)(C)C)ccc3Cl)c(F)c2)ccn1 [Compound 414, N-(4-{4-[3-(5-tert-Butyl-2-chloro-phenyl)-ureido]-3-fluoro-phenoxymethyl}-pyridin-2-yl)-acetamide]
